Data: BindingDB's records for PubMed 6248635 (Stanford University, 1980)
Values joined by “and” are separate entries in the source; they are usually repeats but may differ in a detail not shown here. Equal values may be shown once.

How the values were obtained:
[1] = target: Delta-type opioid receptor (Mus musculus, UniProt P32300)
[2] = target: Opioid receptor delta 1 (Bos taurus, UniProt F1N083)
[3] = target: Beta-arrestin-1 (Oryctolagus cuniculus, UniProt Q95223)
Sequence of Beta-arrestin-1 (Q95223 whole entry): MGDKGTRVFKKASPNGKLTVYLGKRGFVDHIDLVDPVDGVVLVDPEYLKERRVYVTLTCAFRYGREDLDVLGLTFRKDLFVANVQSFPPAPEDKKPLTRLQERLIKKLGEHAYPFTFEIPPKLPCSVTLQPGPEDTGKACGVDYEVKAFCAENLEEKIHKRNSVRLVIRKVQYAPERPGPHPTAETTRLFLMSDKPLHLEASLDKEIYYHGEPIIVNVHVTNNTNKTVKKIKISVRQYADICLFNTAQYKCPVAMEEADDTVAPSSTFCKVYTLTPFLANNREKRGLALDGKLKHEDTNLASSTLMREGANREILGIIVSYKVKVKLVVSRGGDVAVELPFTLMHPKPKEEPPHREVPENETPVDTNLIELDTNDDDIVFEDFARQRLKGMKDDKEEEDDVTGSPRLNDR

Sequence of Opioid receptor delta 1 (F1N083 whole entry): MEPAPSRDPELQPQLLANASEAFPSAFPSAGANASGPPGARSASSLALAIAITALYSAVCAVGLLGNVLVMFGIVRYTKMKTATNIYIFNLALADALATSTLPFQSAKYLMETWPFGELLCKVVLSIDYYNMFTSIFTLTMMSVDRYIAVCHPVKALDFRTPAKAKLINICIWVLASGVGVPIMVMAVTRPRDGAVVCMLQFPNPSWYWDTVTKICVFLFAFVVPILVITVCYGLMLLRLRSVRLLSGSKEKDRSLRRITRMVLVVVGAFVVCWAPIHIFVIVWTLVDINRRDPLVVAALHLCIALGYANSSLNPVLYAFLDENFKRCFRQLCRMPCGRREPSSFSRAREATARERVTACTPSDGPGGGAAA
Sequence of Delta-type opioid receptor (P32300 whole entry): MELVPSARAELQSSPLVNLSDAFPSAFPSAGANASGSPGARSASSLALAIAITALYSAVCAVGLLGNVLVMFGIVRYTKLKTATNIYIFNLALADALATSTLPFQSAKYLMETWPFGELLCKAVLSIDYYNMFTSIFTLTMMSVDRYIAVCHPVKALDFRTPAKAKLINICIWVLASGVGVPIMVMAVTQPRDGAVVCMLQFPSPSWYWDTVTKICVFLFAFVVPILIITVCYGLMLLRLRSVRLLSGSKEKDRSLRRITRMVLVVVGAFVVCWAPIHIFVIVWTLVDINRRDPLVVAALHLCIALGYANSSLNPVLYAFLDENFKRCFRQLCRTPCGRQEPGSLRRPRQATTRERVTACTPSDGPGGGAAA

Molecule: CN1CC[C@]23c4c5ccc(O)c4O[C@H]2[C@@H](O)CCC3[C@H]1C5 (stereo partly drawn) [DIHYDROMORPHINE]
- Ki [1]: 127 nM
- Ki [2]: 38.1 nM and 35.6 nM

Molecule: CC(C)C[C@@H](NC(=O)[C@H](Cc1ccccc1)NC(=O)CNC(=O)[C@@H](C)NC(=O)[C@@H](N)Cc1ccc(O)cc1)C(=O)O [[D-Ala2-D-Leu5]enkephalin]
- Ki [2]: 1.8 nM and 9.7 nM

Molecule: CC(C)C[C@H](NC(=O)[C@H](Cc1ccccc1)NC(=O)CNC(=O)[C@@H](C)NC(=O)[C@@H](N)Cc1ccc(O)cc1)C(=O)O [DALLE]
- Ki [3]: 3.6 nM
- Ki [2]: 1.8 nM and 7.4 nM

Molecule: C=CCN1CC[C@]23c4c5ccc(O)c4O[C@H]2C(=O)CC[C@@]3(O)[C@H]1C5 [[17-(2,3-3H-2-propenyl)]-4,5a-epoxy-3,14-dihydroxymorphinan-6-one]
- Ki [3]: 67.4 nM

Molecule: H-YGGFMTSEKSQTPLVTLFKNAIVKNAHKKGQ-OH [Beta-Endorphin]
- Ki [3]: 21 nM
- Ki [2]: 14 nM and 58.1 nM
